# Measured values published in ChEMBL document CHEMBL1140186, “Hunter-killer peptide (HKP) for targeted therapy” (2008).
# The source made the active and inactive calls. The rule behind the calls is not given here. Bridge positions count the residues as written; N and C are the ends. Square brackets hold non-standard residues; d marks the D form. Peptide text beside a SMILES is read from it.
# Experiments:
# Mus musculus [1] = experiment: Induction of weight loss in sc dosed high fat diet fed mouse after 4 weeks; assay type: functional
# Mus musculus [2] = experiment: Reduction in epididymal fat pad size in sc dosed high fat diet fed mouse after 4 weeks relative to control; assay type: functional; parameters: scale not given: the % may be the effect or the level left
# MDA-MB-435 = experiment: Antitumor activity against human MDA-MB-435 cells xenografted mouse assessed as survival after 120 days; assay type: functional
# Mus musculus [3] = species on record: Mus musculus; experiment: Increase in survival of transgenic mouse prostate adenocarcinoma model after 6 to 8 weeks; assay type: functional, organism-based; settings: Prostate gland
smiles,measurement,setting,value
CC(C)C[C@@H](NC(=O)[C@@H](CCCCN)NC(=O)CNC(=O)CNC(=O)[C@@H]1CSSC[C@H](N)C(=O)N[C@@H](CCCCN)C(=O)NCC(=O)NCC(=O)N[C@@H](CCCNC(=N)N)C(=O)N[C@@H](C)C(=O)N[C@@H](CCCCN)C(=O)N[C@@H](CC(=O)O)C(=O)N1)C(=O)N[C@H](C)C(=O)N[C@H](CCCCN)C(=O)N[C@H](CC(C)C)C(=O)N[C@H](C)C(=O)N[C@H](CCCCN)C(=O)N[C@H](CCCCN)C(=O)N[C@H](CC(C)C)C(=O)N[C@H](C)C(=O)N[C@H](CCCCN)C(=O)N[C@H](CC(C)C)C(=O)N[C@H](C)C(=O)N[C@H](CCCCN)C(=O)O (H-CKGGRAKDCGG[dK][dL][dA][dK][dL][dA][dK][dK][dL][dA][dK][dL][dA][dK]-OH; disulfide 1-9),Activity,Mus musculus [1],30%
same,Activity,Mus musculus [2],>70%
CC(C)C[C@@H](NC(=O)[C@@H](CCCCN)NC(=O)CNC(=O)CNC(=O)[C@@H]1CSSC[C@H](N)C(=O)N[C@@H](CC(N)=O)C(=O)NCC(=O)N[C@@H](CCCNC(=N)N)C(=O)N1)C(=O)N[C@H](C)C(=O)N[C@H](CCCCN)C(=O)N[C@H](CC(C)C)C(=O)N[C@H](C)C(=O)N[C@H](CCCCN)C(=O)N[C@H](CCCCN)C(=O)N[C@H](CC(C)C)C(=O)N[C@H](C)C(=O)N[C@H](CCCCN)C(=O)N[C@H](CC(C)C)C(=O)N[C@H](C)C(=O)N[C@H](CCCCN)C(=O)O (H-CNGRCGG[dK][dL][dA][dK][dL][dA][dK][dK][dL][dA][dK][dL][dA][dK]-OH; disulfide 1-5),Survival,MDA-MB-435,60%
CC[C@H](C)[C@H](NC(=O)[C@H](CO)NC(=O)[C@H](CCSC)NC(=O)[C@@H](N)CO)C(=O)N[C@@H](C)C(=O)N[C@@H](CCCNC(=N)N)C(=O)N[C@@H](CC(C)C)C(=O)NCC(=O)NCC(=O)N[C@H](CCCCN)C(=O)N[C@H](CC(C)C)C(=O)N[C@H](C)C(=O)N[C@H](CCCCN)C(=O)N[C@H](CC(C)C)C(=O)N[C@H](C)C(=O)N[C@H](CCCCN)C(=O)N[C@H](CCCCN)C(=O)N[C@H](CC(C)C)C(=O)N[C@H](C)C(=O)N[C@H](CCCCN)C(=O)N[C@H](CC(C)C)C(=O)N[C@H](C)C(=O)N[C@H](CCCCN)C(=O)O (H-SMSIARLGG[dK][dL][dA][dK][dL][dA][dK][dK][dL][dA][dK][dL][dA][dK]-OH),Activity,Mus musculus [3],Active
